Data reported in ChEMBL document CHEMBL4507326, “Data for DCP probe TP-030-2” (2021).

Key:
[1] = target: Rho-associated protein kinase 1 (Homo sapiens, UniProt Q13464); assay: ROCK1(ROC1LGY1) Takeda global kinase panel
[2] = target: Uncharacterized serine/threonine-protein kinase SBK3 (Homo sapiens, UniProt P0C264); assay: SgK110(SG10LGF1) Takeda global kinase panel
[3] = target: Serine/threonine-protein kinase TBK1 (Homo sapiens, UniProt Q9UHD2); assay: TBK1(TBK1CGF1) Takeda global kinase panel
[4] = target: Sodium-dependent serotonin transporter (Homo sapiens) (UniProt P31645); details: Compound concentration 10.0 uM
[5] = target: Serine/threonine-protein kinase B-raf (Homo sapiens, UniProt P15056); assay: BRAF(BRAFLGY1) Takeda global kinase panel
[6] = target: Cannabinoid receptor 1 (Homo sapiens) (UniProt P21554); assay: Inhibition of Cannabinoid CB1 at compound concentration of 10.0 uM in the Eurofins-Panlabs radioligand binding assay (Eurofins_assay_217050); set-up: ligand concentration 2 nM; details: Compound concentration 10.0 uM
[7] = target: Tyrosine-protein kinase CSK (Homo sapiens, UniProt P41240); assay: CSK(CSK1LGF1) Takeda global kinase panel
[8] = target: Mitogen-activated protein kinase kinase kinase 5 (Homo sapiens, UniProt Q99683); assay: ASK [MAP3K5(M3K5LGA1)] Takeda global kinase panel
[9] = target: Serine/threonine-protein kinase ULK2 (Homo sapiens, UniProt Q8IYT8); assay: ULK2(ULK2LGY1) Takeda global kinase panel
[10] = target: Mast/stem cell growth factor receptor Kit (Homo sapiens, UniProt P10721); assay: Kit(KIT1MGC1) Takeda global kinase panel
[11] = target: Mitogen-activated protein kinase kinase kinase 14 (Homo sapiens, UniProt Q99558); assay: NIK(M314LGP1) Takeda global kinase panel
[12] = target: Kappa-type opioid receptor (Homo sapiens) (UniProt P41145); details: Compound concentration 10.0 uM
[13] = target: Serine/threonine-protein kinase H1 (Homo sapiens, UniProt P11801); assay: PSKH1(PSH1LGRH) Takeda global kinase panel
[14] = target: Epidermal growth factor receptor (Homo sapiens, UniProt P00533); assay: Inhibition of Epidermal Growth Factor (EGF) at 10 µM in the Eurofins-Panlabs radioligand binding assay (Eurofins_assay_225510); details: Compound concentration 10.0 uM
[15] = target: Vascular endothelial growth factor receptor 3 (Homo sapiens, UniProt P35916); assay: FLT4(FLT4LGY1) Takeda global kinase panel
[16] = target: G protein-coupled receptor kinase 3 (Homo sapiens, UniProt P35626); assay: BARK2 [GRK3(ADR2LGG5)] Takeda global kinase panel
[17] = target: Serine/threonine-protein kinase Nek3 (Homo sapiens, UniProt P51956); assay: Nek3(NEK3LGRI) Takeda global kinase panel
[18] = target: Ribosomal protein S6 kinase alpha-1 (Homo sapiens, UniProt Q15418); assay: RSK1 [p90RSK(R6A2CGE1)] Takeda global kinase panel
[19] = target: Alpha-1A adrenergic receptor (Homo sapiens) (UniProt P35348); details: Compound concentration 10.0 uM
[20] = target: Mitogen-activated protein kinase 3 (Homo sapiens, UniProt P27361); assay: ERK1(MAP3LGY1) Takeda global kinase panel
[21] = target: Tyrosine-protein kinase ITK/TSK (Homo sapiens, UniProt Q08881); assay: ITK(ITK1CGF1) Takeda global kinase panel
[22] = target: D(4) dopamine receptor (Homo sapiens) (UniProt P21917); details: Compound concentration 10.0 uM
eIF-2-alpha kinase GCN2 = eIF-2-alpha kinase GCN2 (Homo sapiens, UniProt Q9P2K8); assay: GCN2(EIK4PHK1) Takeda global kinase panel
[23] = target: Cyclin-dependent kinase 13 (Homo sapiens, UniProt Q14004); assay: CHED(CD13PHS1) Takeda global kinase panel
[24] = target: Platelet-derived growth factor receptor beta (Homo sapiens, UniProt P09619); assay: PDGFRbeta(PDGBIHC1) Takeda global kinase panel
[25] = target: Alpha-2C adrenergic receptor (Homo sapiens) (UniProt P18825); details: Compound concentration 10.0 uM
[26] = target: voltage-gated sodium channel, site 2 (Rattus norvegicus, UniProt F1LQQ7+O08562+O88420+O88457+P04774+P04775+P08104+P15389+P15390+Q62968); assay: Inhibition of Sodium Channel, Site 2 at 10 µM in the Eurofins-Panlabs radioligand binding assay (Eurofins_assay_279510); type: protein assay; set-up: ligand concentration 5 nM, non-specific ligand with concentration 100 µM Veratridine, incubation time 60 min, incubation temperature 37 °C; details: male, Wistar, rat whole brain (except cerebellum) membranes, probe [3H] Batrachotoxinin, compound concentration 10 uM
[27] = target: Death-associated protein kinase 2 (Homo sapiens, UniProt Q9UIK4); assay: DAPK2(DAP2LGF1) Takeda global kinase panel
[28] = target: Cyclin-dependent kinase 9 (Homo sapiens, UniProt P50750); assay: CDK9(CDK9CGS1) Takeda global kinase panel
[29] = target: Bone morphogenetic protein receptor type-1B (Homo sapiens, UniProt O00238); assay: BMPR1B(BM1BLGF1) Takeda global kinase panel
[30] = target: Cysteinyl leukotriene receptor 1 (Homo sapiens) (UniProt Q9Y271); assay: Inhibition of Leukotriene, Cysteinyl CysLT1 at 10 µM in the Eurofins-Panlabs radioligand binding assay (Eurofins_assay_250460); set-up: ligand concentration 0.3 nM, non-specific ligand with concentration 0.3 µM Leukotriene D4, incubation time 30 min, incubation temperature 25 °C; details: Compound concentration 10.0 uM
[31] = target: Citron Rho-interacting kinase (Homo sapiens, UniProt O14578); assay: CRIK(CIT1LGY1) Takeda global kinase panel
[32] = target: NT-3 growth factor receptor (Homo sapiens, UniProt Q16288); assay: TRKC(NTR3LGN1) Takeda global kinase panel
[33] = target: Mitogen-activated protein kinase 8 (Homo sapiens, UniProt P45983); assay: JNK1(MAP8LGF1) Takeda global kinase panel
[34] = target: 5-hydroxytryptamine receptor 1D (Homo sapiens) (UniProt P28221); details: Compound concentration 10.0 uM
[35] = target: Muscarinic acetylcholine receptor M1 (Homo sapiens) (UniProt P11229); details: Compound concentration 10.0 uM
[36] = target: Calcium/calmodulin-dependent protein kinase type 1G (Homo sapiens, UniProt Q96NX5); assay: CaMK1gamma(CA1GLGN1) Takeda global kinase panel
[37] = target: Serine/threonine-protein kinase D1 (Homo sapiens, UniProt Q15139); assay: PKD1(PRD1LHY1) Takeda global kinase panel
[38] = target: Serine/threonine-protein kinase N1 (Homo sapiens, UniProt Q16512); assay: PKN1 [PRK1(PKN1LGY1)] Takeda global kinase panel
Myotonin-protein kinase = Myotonin-protein kinase (Homo sapiens, UniProt Q09013); assay: DMPK(DMPKLGF1) Takeda global kinase panel
[39] = target: Serine/threonine-protein kinase ULK1 (Homo sapiens, UniProt O75385); assay: ULK1(ULK1LGF1) Takeda global kinase panel
[40] = target: Sigma intracellular receptor 2 (Homo sapiens, UniProt Q5BJF2); assay: GPCRScan assay: inhibition of Sigma 2; set-up: radioligand conc. used [nm] 5.0, parental cells HEKT
[41] = target: Serine/threonine-protein kinase 32A (Homo sapiens, UniProt Q8WU08); assay: YANK1(S32APHY1) Takeda global kinase panel

Sigma intracellular receptor 2, sequence (Q5BJF2 whole entry): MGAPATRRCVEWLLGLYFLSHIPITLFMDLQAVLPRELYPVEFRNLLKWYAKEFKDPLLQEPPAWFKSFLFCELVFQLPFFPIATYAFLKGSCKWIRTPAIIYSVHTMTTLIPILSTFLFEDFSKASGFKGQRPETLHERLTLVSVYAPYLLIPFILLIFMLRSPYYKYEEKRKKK
Bone morphogenetic protein receptor type-1B, sequence (O00238 whole entry): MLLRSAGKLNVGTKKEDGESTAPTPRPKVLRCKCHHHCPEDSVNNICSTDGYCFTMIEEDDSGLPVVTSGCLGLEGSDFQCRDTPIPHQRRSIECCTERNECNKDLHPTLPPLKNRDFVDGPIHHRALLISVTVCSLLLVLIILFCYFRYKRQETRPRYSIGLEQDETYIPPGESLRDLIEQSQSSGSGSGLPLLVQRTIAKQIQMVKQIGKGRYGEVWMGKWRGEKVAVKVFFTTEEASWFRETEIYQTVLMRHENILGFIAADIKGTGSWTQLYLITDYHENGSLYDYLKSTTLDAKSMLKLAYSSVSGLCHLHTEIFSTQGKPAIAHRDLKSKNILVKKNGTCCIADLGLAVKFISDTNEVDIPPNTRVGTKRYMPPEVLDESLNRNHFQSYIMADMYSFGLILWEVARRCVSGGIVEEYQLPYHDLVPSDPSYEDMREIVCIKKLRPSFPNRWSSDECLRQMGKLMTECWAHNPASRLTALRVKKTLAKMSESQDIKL
Cannabinoid receptor 1 (Homo sapiens), sequence (P21554 whole entry): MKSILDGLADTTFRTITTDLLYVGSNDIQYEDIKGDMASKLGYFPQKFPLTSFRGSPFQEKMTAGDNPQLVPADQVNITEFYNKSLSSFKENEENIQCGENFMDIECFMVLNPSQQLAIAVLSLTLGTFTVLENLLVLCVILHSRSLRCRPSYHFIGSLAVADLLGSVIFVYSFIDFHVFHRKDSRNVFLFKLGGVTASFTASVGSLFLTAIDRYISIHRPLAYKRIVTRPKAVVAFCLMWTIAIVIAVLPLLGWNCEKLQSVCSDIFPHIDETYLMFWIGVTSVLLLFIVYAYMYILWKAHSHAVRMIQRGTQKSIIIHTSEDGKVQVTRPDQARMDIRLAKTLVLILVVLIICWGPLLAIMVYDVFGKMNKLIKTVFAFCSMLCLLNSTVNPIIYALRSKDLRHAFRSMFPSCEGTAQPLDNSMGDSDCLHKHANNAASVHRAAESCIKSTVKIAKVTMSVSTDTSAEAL
Mitogen-activated protein kinase kinase kinase 5, sequence (Q99683 whole entry): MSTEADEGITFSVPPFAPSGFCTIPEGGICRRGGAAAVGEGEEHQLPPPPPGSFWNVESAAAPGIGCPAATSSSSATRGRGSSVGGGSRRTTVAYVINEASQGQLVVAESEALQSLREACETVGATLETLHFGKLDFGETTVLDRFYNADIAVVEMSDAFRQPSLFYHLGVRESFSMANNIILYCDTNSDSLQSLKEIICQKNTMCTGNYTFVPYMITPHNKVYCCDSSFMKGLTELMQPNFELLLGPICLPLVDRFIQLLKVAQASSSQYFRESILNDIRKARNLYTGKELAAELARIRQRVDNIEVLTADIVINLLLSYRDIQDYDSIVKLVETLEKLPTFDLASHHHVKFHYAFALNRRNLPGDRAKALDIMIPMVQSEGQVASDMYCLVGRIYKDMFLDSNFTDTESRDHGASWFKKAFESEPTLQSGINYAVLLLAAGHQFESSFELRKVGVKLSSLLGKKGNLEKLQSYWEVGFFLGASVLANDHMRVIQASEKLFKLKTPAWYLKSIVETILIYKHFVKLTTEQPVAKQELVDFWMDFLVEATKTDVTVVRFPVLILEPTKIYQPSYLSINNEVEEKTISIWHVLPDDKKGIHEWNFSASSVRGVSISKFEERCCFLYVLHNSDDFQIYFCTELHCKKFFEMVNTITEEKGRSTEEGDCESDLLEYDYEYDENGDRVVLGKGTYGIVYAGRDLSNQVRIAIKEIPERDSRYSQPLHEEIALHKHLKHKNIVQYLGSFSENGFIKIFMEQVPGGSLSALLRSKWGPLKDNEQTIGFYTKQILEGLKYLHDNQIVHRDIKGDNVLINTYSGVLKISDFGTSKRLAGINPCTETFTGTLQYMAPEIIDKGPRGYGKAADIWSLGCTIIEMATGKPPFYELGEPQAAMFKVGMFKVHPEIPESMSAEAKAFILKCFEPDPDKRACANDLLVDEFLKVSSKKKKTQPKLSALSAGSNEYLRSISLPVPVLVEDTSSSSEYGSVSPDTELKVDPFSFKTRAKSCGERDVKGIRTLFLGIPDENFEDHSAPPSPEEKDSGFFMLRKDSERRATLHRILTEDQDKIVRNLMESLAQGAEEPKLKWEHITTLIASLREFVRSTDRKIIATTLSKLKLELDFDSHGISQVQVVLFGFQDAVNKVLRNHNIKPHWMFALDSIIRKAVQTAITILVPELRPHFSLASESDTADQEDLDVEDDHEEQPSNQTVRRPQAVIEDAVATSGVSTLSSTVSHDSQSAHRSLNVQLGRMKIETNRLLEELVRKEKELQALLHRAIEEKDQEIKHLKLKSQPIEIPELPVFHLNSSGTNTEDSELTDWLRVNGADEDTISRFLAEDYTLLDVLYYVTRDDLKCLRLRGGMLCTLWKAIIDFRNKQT
Serine/threonine-protein kinase ULK1, sequence (O75385 whole entry): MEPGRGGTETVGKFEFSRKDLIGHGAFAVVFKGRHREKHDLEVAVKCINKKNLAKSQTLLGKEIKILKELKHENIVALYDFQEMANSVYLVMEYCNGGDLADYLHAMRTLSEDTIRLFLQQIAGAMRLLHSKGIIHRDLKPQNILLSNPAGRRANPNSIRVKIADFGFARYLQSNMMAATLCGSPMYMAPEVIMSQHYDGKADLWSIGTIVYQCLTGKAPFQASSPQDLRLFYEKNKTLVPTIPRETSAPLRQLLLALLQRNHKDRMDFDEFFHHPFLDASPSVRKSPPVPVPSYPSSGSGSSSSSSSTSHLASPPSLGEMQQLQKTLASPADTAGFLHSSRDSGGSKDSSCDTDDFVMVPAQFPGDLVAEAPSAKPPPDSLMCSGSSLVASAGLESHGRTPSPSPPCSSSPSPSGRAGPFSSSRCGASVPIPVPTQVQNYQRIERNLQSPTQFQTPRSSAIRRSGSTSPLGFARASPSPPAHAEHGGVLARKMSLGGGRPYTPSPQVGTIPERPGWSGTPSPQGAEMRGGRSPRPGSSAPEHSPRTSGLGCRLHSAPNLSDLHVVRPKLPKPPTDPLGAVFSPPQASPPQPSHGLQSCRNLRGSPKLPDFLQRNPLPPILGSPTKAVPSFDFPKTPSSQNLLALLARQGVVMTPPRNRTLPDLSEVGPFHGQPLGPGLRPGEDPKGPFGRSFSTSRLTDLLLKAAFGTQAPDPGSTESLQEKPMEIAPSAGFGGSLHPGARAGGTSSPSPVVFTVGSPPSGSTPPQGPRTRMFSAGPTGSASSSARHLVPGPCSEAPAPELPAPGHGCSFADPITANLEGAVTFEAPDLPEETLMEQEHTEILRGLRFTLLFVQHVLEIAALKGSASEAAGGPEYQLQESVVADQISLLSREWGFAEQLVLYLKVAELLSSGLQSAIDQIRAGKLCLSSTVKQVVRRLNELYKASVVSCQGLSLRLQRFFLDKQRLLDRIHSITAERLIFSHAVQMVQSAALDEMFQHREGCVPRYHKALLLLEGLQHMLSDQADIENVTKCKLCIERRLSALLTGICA
Serine/threonine-protein kinase D1, sequence (Q15139 whole entry): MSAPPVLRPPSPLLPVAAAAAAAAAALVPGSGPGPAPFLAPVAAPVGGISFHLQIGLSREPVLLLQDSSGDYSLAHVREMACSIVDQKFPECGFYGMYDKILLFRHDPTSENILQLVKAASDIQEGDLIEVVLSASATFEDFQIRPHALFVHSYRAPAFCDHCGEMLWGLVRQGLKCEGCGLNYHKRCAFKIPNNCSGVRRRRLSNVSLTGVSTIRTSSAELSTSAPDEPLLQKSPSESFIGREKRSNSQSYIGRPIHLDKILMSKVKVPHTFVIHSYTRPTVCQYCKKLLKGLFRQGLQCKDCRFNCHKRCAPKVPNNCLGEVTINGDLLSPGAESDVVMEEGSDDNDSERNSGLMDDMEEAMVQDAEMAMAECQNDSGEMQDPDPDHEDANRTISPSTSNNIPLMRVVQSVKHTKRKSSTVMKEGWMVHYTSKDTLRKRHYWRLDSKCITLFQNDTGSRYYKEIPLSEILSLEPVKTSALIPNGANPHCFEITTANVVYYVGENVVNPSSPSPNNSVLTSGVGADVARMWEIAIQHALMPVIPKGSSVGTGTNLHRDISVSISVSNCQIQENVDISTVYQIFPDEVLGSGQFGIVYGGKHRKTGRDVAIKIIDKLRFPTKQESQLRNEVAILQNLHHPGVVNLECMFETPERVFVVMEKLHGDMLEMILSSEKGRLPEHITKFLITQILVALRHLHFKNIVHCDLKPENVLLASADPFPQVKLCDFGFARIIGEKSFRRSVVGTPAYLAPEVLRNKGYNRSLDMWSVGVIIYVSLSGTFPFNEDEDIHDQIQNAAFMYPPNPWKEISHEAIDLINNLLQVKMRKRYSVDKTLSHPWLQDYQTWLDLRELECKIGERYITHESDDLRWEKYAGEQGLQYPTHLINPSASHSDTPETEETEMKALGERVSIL
Serine/threonine-protein kinase H1, sequence (P11801 whole entry): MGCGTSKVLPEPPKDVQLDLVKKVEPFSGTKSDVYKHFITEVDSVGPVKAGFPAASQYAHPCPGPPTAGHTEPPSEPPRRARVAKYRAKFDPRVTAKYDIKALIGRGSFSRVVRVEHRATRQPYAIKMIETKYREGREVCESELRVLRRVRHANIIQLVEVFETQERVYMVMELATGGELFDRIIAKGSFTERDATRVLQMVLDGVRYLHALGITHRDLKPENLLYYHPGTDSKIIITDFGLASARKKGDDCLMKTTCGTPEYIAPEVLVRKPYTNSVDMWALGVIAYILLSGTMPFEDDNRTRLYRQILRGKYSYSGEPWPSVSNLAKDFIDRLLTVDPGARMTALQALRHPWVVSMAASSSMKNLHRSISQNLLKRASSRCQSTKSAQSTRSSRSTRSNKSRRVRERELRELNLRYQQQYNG

CN1C(=O)[C@@H](N2CCc3c(nn(Cc4ccccc4)c3Br)C2=O)COc2ccccc21 [TP-030-2]
3480 nM: Ki ([40]; read-out: Ki)
1000 nM: IC50 [1] | IC50 [2] | IC50 [3] | IC50 [5] | IC50 [7] | IC50 [8] | IC50 [9] | IC50 [10] | IC50 [11] | IC50 [13] | IC50 [15] | IC50 [16] | IC50 [17] | IC50 [18] | IC50 [20] | IC50 [21] | IC50 (eIF-2-alpha kinase GCN2) | IC50 [23] | IC50 [24] | IC50 [27] | IC50 [28] | IC50 [29] | IC50 [31] | IC50 [32] | IC50 [33] | IC50 [36] | IC50 [37] | IC50 [38] | IC50 (Myotonin-protein kinase) | IC50 [39] | IC50 [41]
3240 nM: Ki ([40]; read-out: pKi (converted))
inactive: inhibition [4] 5% | inhibition [6] 40% | inhibition [12] 16.5% | inhibition [14] 2% | inhibition [19] -4.83% | inhibition [22] 8.9% | inhibition [30] 5% | inhibition [34] -5.06% | inhibition [35] -4%
active: inhibition [25] 71.3%
42% (not active): inhibition at 60 min, 10 µM [26]
